For test [1], the target named is T1, Histamine H3 receptor (Rattus norvegicus, UniProt Q9QYN8). Description: biochemical. Format: cell-based, CHO-K1.
Description: Inhibition of [125I]iodoproxyfan from rat histamine H3 receptor expressed in CHO-K1 cells
The target in test [2] is T2, Histamine H3 receptor (Homo sapiens, UniProt Q9Y5N1). Description: biochemical. The format is cell-based, CHO-K1.
Description: Inhibition of [125I]iodoproxyfan binding to human histamine H3 receptor of CHO-K1 cells
For test [3], the target named is T2, Histamine H3 receptor. Description: Ratio of binding affinity of rat histamine H3 receptor to that of human histamine H3 receptor; 1:12.
Test [4] has as its target T2, Histamine H3 receptor. Description: Ratio of binding affinity of rat histamine H3 receptor to that of human histamine H3 receptor;1:10.
In test [5] the target is T1, Histamine H3 receptor. Description: Binding affinity to rat Histamine H3 receptor in CHO-K1 cells using [125I]iodoproxyfan as radioligand. Format: cell-based.
For test [6], the target named is T2, Histamine H3 receptor. Description: Ratio of binding affinity of rat histamine H3 receptor to that of human histamine H3 receptor;1:6.
Test [7] concerns the target T2, Histamine H3 receptor. In words: Ratio of binding affinity of rat histamine H3 receptor to that of human histamine H3 receptor; 1:3.

pKi: −log10 of the molar value.

In ChEMBL document CHEMBL1134016, “Different antagonist binding properties of human and rat histamine H3 receptors” (Bioorg Med Chem Lett, 2001) one finds Ki and Ratio data, which are given here for 13 compounds.

What is called pKi is −log10 of the Ki, conventionally taken in molar units. The low end stands for a high Ki, the high end for a low Ki.

T2 sequence (Q9Y5N1 whole entry): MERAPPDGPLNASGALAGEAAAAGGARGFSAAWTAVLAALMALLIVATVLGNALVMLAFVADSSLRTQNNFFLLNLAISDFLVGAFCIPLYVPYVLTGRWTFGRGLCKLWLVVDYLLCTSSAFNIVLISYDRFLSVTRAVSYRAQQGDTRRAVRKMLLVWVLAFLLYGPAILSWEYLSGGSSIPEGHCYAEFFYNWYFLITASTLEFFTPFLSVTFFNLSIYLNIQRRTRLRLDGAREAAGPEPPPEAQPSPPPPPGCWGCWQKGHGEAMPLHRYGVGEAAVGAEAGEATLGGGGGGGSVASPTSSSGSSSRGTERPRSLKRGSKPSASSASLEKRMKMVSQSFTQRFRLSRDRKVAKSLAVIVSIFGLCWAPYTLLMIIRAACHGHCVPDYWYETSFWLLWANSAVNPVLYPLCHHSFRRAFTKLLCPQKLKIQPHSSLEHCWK
T1 sequence (Q9QYN8 whole entry): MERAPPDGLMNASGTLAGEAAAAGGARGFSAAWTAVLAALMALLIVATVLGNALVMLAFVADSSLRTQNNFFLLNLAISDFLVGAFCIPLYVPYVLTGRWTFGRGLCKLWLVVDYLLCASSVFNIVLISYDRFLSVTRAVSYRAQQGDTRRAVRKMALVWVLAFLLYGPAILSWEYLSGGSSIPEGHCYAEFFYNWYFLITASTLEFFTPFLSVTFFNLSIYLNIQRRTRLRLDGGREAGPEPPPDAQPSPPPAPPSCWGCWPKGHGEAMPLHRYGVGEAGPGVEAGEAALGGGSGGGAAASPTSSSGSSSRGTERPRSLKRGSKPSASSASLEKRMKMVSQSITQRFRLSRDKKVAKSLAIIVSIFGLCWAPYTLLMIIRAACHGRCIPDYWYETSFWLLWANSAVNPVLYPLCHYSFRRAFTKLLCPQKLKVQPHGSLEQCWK

Take `CC(=O)c1ccc(OCCc2cnc[nH]2)cc1`: the pKi at Histamine H3 receptor [1] was 8.44; at Histamine H3 receptor [2] it was 7.38. With `c1ccc(COCCCc2c[nH]cn2)cc1` [PROXYFAN], the pKi was 8.54 on Histamine H3 receptor [1] and 8.57 on Histamine H3 receptor [2]. Consider `CC(=O)c1ccc(OCCc2c[nH]cn2)cc1`, for which the Ratio on Histamine H3 receptor [3] amounted to 12. `CC(=O)c1ccc(SCCc2cnc[nH]2)cc1`: the negative logarithm of the Ki (pKi) on Histamine H3 receptor [1] is 9.96; on Histamine H3 receptor [2], 8.96. Regarding `CC(=O)c1ccc(OCCCCc2cnc[nH]2)cc1`, the negative-log Ki (pKi) is 7.44 at Histamine H3 receptor [1] and 7.72 at Histamine H3 receptor [2]. For the compound `O=C(c1ccc(OCCCc2cnc[nH]2)cc1)C1CC1` [CIPROXIFAN], the pKi at Histamine H3 receptor [1] was 8.41. For `CC(=O)c1ccc(SCCCc2c[nH]cn2)cc1`, the results for the negative-log Ki (pKi) on Histamine H3 receptor [1] and on Histamine H3 receptor [2] were 7.36 and 7.74, respectively.

On to `Ic1ccc(COCCCc2c[nH]cn2)cc1` [IODOPROXYFAN], for which the negative logarithm of the Ki (pKi) on Histamine H3 receptor [1] was 7.15; on Histamine H3 receptor [2], 7.39.

On to `CC(=O)c1ccc(SCCc2c[nH]cn2)cc1`, for which the Ratio on Histamine H3 receptor [4] was 10. `c1ccc(OCCCc2c[nH]cn2)cc1` showed a negative logarithm of the Ki (pKi) on Histamine H3 receptor [2] of 7.57. As to `S=C(NC1CCCCC1)N1CCC(c2cnc[nH]2)CC1` [THIOPERAMIDE], at Histamine H3 receptor [5], the negative-log Ki (pKi) is 8.19. For `COc1ccc(OCCCc2c[nH]cn2)cc1`, the pKi is 8.10 on Histamine H3 receptor [1] and 7.33 at Histamine H3 receptor [2]. Besides, on Histamine H3 receptor [6], the Ratio was found to be 6. For the compound `CC(=O)c1ccc(OCCCc2c[nH]cn2)cc1`, the negative-log Ki (pKi) on Histamine H3 receptor [1] is 7.54; on Histamine H3 receptor [2], 7.06. Moreover, the Ratio at Histamine H3 receptor [7] was determined as 3.
